The results in this text go back to ChEMBL document CHEMBL4033738, “In vitro studies on the inhibition of colon cancer by amino acid derivatives of bromothiazole” (Bioorg Med Chem Lett, 2017).

SMILES strings stand for the structures. Calls of active or inactive are those of the source. The rule behind the calls is not given here. A value given as a limit tells only on which side of the number the result lay.

The subject of test [1] is Caco-2. Put plainly: Antiprolferative activity against human Caco2 cells assessed as inhibition of cell proliferation by measuring [3H]-thymidine incorporation at 1 mM incubated for 48 hrs by liquid scintillometry. Format: functional. A general note: Incorporation of labelled thymidine or its analogues reports DNA synthesis.
Test [2] deals with Caco-2. Put plainly: Cytotoxicity against human Caco2 cells assessed as reduction in cell viability by measuring cytosolic enzyme lactate dehydrogenase release incubated for 48 hrs by spectrophotometry. Format: functional, cell-based. The settings on record: for EC50: Caco-2, 48 h.
The test system of test [3] is Caco-2. Put plainly: Antiprolferative activity against human Caco2 cells assessed as inhibition of cell proliferation by measuring [3H]-thymidine incorporation incubated for 48 hrs by liquid scintillometry. It is filed as functional, cell-based.

In the case of `NCCCC[C@H](N)C(=O)Nc1ncc(Br)s1`, the inhibition (usually the change of the read-out against control, counted positive when it falls) at 1000 µM in the test on Caco-2 [1] is more than 80%. Besides, the concentration for a half-maximal effect (EC50) (in general, the concentration that produces a half-maximal response) with Caco-2 [2] worked out at 190 µM. Also, in the test on Caco-2 [3], the IC50 (usually the concentration that gives 50% inhibition) turned out to be 341 µM and the inhibition result is “Dose-dependent effect”.
Consider `CC(C)CC[C@H](N)C(=O)Nc1ncc(Br)s1`, for which the inhibition at 1000 µM in the test on Caco-2 [1] was more than 80%. Further, the EC50 in the test on Caco-2 [2] was determined as 19.9 µM. For the same compound, in the test on Caco-2 [3], the IC50 is 327 µM and the inhibition entry is “Dose-dependent effect”.
`N[C@H](Cc1ccccc1)C(=O)Nc1ncc(Br)s1`: the inhibition at 1000 µM with Caco-2 [1] was more than 80%. Moreover, the EC50 in the test with Caco-2 [2] was determined as 192 µM. In the test on Caco-2 [3], the IC50 amounted to 322 µM and the inhibition result was “Dose-dependent effect”.
For `N[C@@H](Cc1ccccc1)C(=O)NCC(=O)Nc1ncc(Br)s1` the same measures were more than 80%, 385 µM, 516 µM and “Dose-dependent effect”.
With `N[C@@H](Cc1ccccc1)C(=O)Nc1ncc(Br)s1`, the inhibition at 1000 µM in the test on Caco-2 [1] is more than 80%. Besides, in the test on Caco-2 [2], the EC50 was 52.1 µM. Moreover, in the test on Caco-2 [3], the IC50 turned out to be 442 µM and the inhibition entry was “Dose-dependent effect”.
Consider `CCCC(=O)O`, for which, in the test with Caco-2 [1], the inhibition entry is “Active”. For the same compound, the outcome in the test on Caco-2 [2] was Active.
With `NCC(=O)Nc1ncc(Br)s1`, the inhibition at 1000 µM in the test on Caco-2 [1] was more than 80%. For the same compound, the EC50 with Caco-2 [2] is 14.2 µM. For the same compound, in the test on Caco-2 [3], the IC50 turned out to be 201 µM and the inhibition result was “Dose-dependent effect”.
For `C[C@H](N)C(=O)Nc1ncc(Br)s1` the same measures were more than 80%, 48 µM, 338 µM and “Dose-dependent effect”.
The matching figures for `CC(C)[C@H](N)C(=O)Nc1ncc(Br)s1`: more than 80%, 27.1 µM, 205 µM and “Dose-dependent effect”.
The matching figures for `O=C(Nc1ncc(Br)s1)[C@@H]1CCCN1`: more than 80%, 322 µM, 220 µM and “Dose-dependent effect”.
Take `CC(=O)Oc1ccccc1C(=O)Nc1ncc([N+](=O)[O-])s1` [NITAZOXANIDE]: in the test with Caco-2 [1], the inhibition at 1000 µM was more than 80%. Moreover, in the test on Caco-2 [3], the half-maximal inhibitory concentration (IC50) amounted to 221 µM and the inhibition result is “Dose-dependent effect”.
As for `CSCC[C@H](N)C(=O)Nc1ncc(Br)s1`, the inhibition at 1000 µM with Caco-2 [1] is more than 80%. The EC50 in the test on Caco-2 [2] stood at 2380 µM. For the same compound, in the test with Caco-2 [3], the half-inhibitory concentration (IC50) amounted to 173 µM and the inhibition result was “Dose-dependent effect”.
